Data: the NIST ThermoML archive (doi:10.1021/je9003806)

Settings: 101.33 kPa, Liquid

CCOC(=O)CC(=O)OCC [diethyl 1,3-propanedioate]
Settings	mass density [kg/m3]
278.15 K	1071.04
288.14 K	1060.33
298.15 K	1049.6
313.15 K	1033.5
328.15 K	1017.34
338.15 K	1006.5
348.15 K	995.631
358.15 K	984.697
